This note sets out measurements from patent US11814412B2, “Artificial proteins and compositions and methods thereof” (The Trustees of the University of Pennsylvania, priority 2015, dated 2023).

The target of the assay is 3M, mammalian maquette MR reporter (de novo heme-binding maquette protein). The following applies: read-out: Kd (heme-binding affinity), current (preliminary) 3M before directed evolution.

As a reminder, the Kd is the free concentration of one partner at which half of the binding sites on the other are occupied at equilibrium, for simple one-to-one binding. For `C=CC1=C(C)c2cc3[nH]c(cc4nc(cc5[nH]c(cc1n2)c(C)c5CCC(=O)O)C(CCC(=O)O)=C4C)c(C)c3C=C.[Fe]` [heme], the Kd is about 1000 nM.
